In brackets after ≈: the same amount, converted by molar mass. Counter-ions that a name gives are not always drawn.

Data set [1] in a line: Brine shrimp lethality assay (BSA). The following applies: Artemia salina (brine shrimp) nauplii, in vivo, probit analysis, read-out: LC50 against Artemia salina larvae. The procedure: Gohari et al. reported the method which was adopted to study the cytotoxic activity of the compounds [11]. Water life brand brine shrimp (Artemia salina) eggs were purchased from the Shalat Center (Tehran). The eggs were hatched in a flask containing 300 mL artificial seawater made […]. The flask was well aerated with the aid of an air pump and kept in a water bath at 29-30°C. A bright light was left on. The nauplii hatched within 48 h. The extracts and pure compounds were dissolved in normal saline. Different concentrations were obtained by serial dilution. Solution of each concentration (500 μL) was transferred into clean 24-well plates via a pipette, and aerated seawater having 10–20 nauplii (500 μL) was added. A check count was performed and the number alive noted after 24 h. The mortality end point of the bioassay was determined as the absence of controlled forward motion during 30 seconds of observation. […] Lethality percentage was determined and LC50 calculated based on probit analysis with 95% of confidence interval [11].

Data set [2] concerns T47D (human, breast, ductal carcinoma). The data set is described as follows: MTT cytotoxicity assay, T47D. In kind it is cell-based. Conditions: 48 hours. Here is the method: (§1) Four cancerous cell lines HT29/219 (human, colon, epithelial-like, carcinoma), Caco2 (human, colon, adenocarcinoma), NIH-3T3 (Swiss NIH mouse, embryo fibroblast), and T47D (human, breast, ductal carcinoma) were purchased from the Pasteur Institute, Tehran, Iran. The cells were maintained in RPMI 1640, supplemented with 10% fetal bovine serum, 0.28 units/mL insulin, 100 μg/mL streptomycin, 100 units/mL penicillin, and 0.3 mg/mL glutamine. The cells were grown at 37°C in a humidified atmosphere of 5% CO2, in air.
(§2) The cytotoxicity of the compounds isolated from S. spicigera was assayed using the MTT cytotoxicity assay. The cells (3 × 10^ 4) were plated in 500 μL of medium/well in 48-well plates (NUNC Cell Culture Flasks, Denmark). After an overnight incubation at 37°C, in 5% CO2, and a humidified atmosphere, the samples were added to the cells to a final concentration of 500 μg/mL. “Methotrexate” (positive control) and pure compounds were examined at concentrations ranging from 5, 10, 20, 40, 80, and 100 μg/mL. The plates were incubated at 37°C, in 5% CO2, humidified atmosphere, for 48 hours. After 48 hours, 50 μL of 5 mg/mL MTT (dissolved in PBS) was added per well. After three hours of incubation, the MTT solution was removed and the cells were washed with 100 μL of PBS, twice. One hundred and fifty microlitres of DMSO was added per well, to solubilize the formazan crystals. The optical densities of the wells were then measured at 570 nm (690 nm reference wavelength). By referring to the control (medium with DMSO), the cell survival was assessed.

Data set [3] has as its system HT-29 (colon adenocarcinoma). The data set is described as follows: MTT cytotoxicity assay, HT-29. Format: cell-based. The following applies: Homo sapiens, 48 hours. Here is the method: as §1, §2
Data set [4] relates to Caco-2 (colon adenocarcinoma). The data set is described as follows: MTT cytotoxicity assay, Caco-2. Format: cell-based. The following applies: Homo sapiens, 48 hours. Here is the method: as §1, §2
Data set [5] relates to NIH 3T3 (Swiss embryo fibroblast). The data set is described as follows: MTT cytotoxicity assay, NIH 3T3. Format: cell-based. Conditions: Mus musculus, NIH3T3, 48 hours. Here is the method: as §1, §2
Data set [6] deals with HT29/219, Caco2, NIH-3T3, and T47D. The data set is described as follows: MTT cytotoxicity assay, all four cell lines (statement in words). Format: cell-based. The following applies: 48 hours. The procedure: as §1
The cytotoxicity of the compounds isolated from S. spicigera was assayed using the MTT cytotoxicity assay. The cells (3 × 10^ 4) were plated in 500 μL of medium/well in 48-well plates (NUNC Cell Culture Flasks, Denmark). After an overnight incubation at 37°C, in 5% CO2, and a humidified atmosphere, the samples were added to the cells to a final concentration of 500 μg/mL. “Methotrexate” (positive control) and pure compounds were examined at concentrations ranging from 5, 10, 20, 40, 80, and 100 μg/mL. The plates were incubated at 37°C, in 5% CO2, humidified atmosphere, for 48 hours. After 48 hours, 50 μL of 5 mg/mL MTT (dissolved in PBS) was added per well. […] The optical densities of the wells were then measured at 570 nm (690 nm reference wavelength). By referring to the control (medium with DMSO), the cell survival was assessed.

As for `COc1ccc2cc3[n+](cc2c1OC)CCc1cc2c(cc1-3)OCO2` [berberine hydrochloride, reference compound], the LC50 at 24 h in data set [1] stood at 26 µg/mL.

For the compound `O=C(c1c(O)cc(O)cc1O)C(O)Cc1ccc(O)cc1` (stereo not shown) [compound 7, nubigenol], the IC50 was 132 µg/mL (≈ 455 µM) in data set [2], greater than 150 µg/mL in data set [3], 143 µg/mL (≈ 493 µM) in data set [4] and 112 µg/mL (≈ 386 µM) in data set [5].

With `O=C1CC(c2cc(O)cc(O)c2)Oc2cc(O)cc(O)c21` (stereo not shown) [compound 8, 5,7,3′,5′-Tetrahydroxy Flavanone], the half-inhibitory concentration (IC50) in data set [2] was greater than 150 µg/mL; in data set [3] it was greater than 150 µg/mL; in data set [4] it was greater than 150 µg/mL; in data set [5] it was 101 µg/mL (≈ 349 µM). The “inhibition of the cell growth or proliferation (in words)” value in data set [6] is recorded as “did not show significant inhibition”. For the same compound, in data set [1], the LC50 at 24 h turned out to be 2 µg/mL (≈ 6.94 µM).

For the compound `COc1cc(C2CC(=O)c3c(O)cc(OC4OC(COC5OC(C)C(O)C(O)C5O)C(O)C(O)C4O)cc3O2)ccc1O` [compound 9, 5,4′-Dihydroxy-3′-methoxyflavanone-7-(6′′-O-α-L-rhamnopyranosyl)-β-D-glucopyranoside], the melting point came out at 256 °C. Further, half-maximal inhibition in data set [2] (IC50) was put at 98.7 µg/mL (≈ 162 µM). The IC50 in data set [3] was greater than 150 µg/mL. Also, the IC50 in data set [4] was greater than 150 µg/mL. This compound yielded an IC50 in data set [5] of 140 µg/mL (≈ 230 µM).

For the origin of these results see paper PMC3349126, “Evaluation of the Cytotoxicity of Satureja spicigera and Its Main Compounds” (The Scientific World Journal, 2012).
